Experimental data: article PMC12278462, “Site-selective arylations of nature-inspired flavonoids or steroidal phenols via C—H or O—H activation” (Journal of Enzyme Inhibition and Medicinal Chemistry, 2025)
Like-named read-outs stand apart in the source and are kept apart here.

Legend:
C33A = experiment: MTT antiproliferative assay, C33A; assay type: cell-based, human; conditions: Homo sapiens, C-33-A, 72 h
MDA-MB-231 [1] = experiment: MTT antiproliferative assay, MDA-MB-231; assay type: cell-based, human; conditions: Homo sapiens
[2] = system: NIH/3T3 mouse fibroblast cell line; experiment: MTT assay, tumour selectivity on non-cancerous fibroblasts; assay type: cell-based; conditions: Mus musculus
MCF-7 = experiment: MTT antiproliferative assay, MCF-7; assay type: cell-based, human; conditions: Homo sapiens
HeLa = experiment: MTT antiproliferative assay, HeLa; assay type: cell-based, human; conditions: Homo sapiens, HeLa, 72 h
SiHa = experiment: MTT antiproliferative assay, SiHa; assay type: cell-based, human; conditions: Homo sapiens, SiHa, 72 h
MDA-MB-231 [3] = system: MDA-MB-231; set-up: method as in PMID 21912610, PMID 28436164; conditions: cited from earlier work
MCF-7dox = system: MCF-7dox; set-up: method as in PMID 21912610, PMID 28436164; conditions: MCF-7 adapted to doxorubicin; cited from earlier work

Compound | inhibition at 10 µM (C33A; 10 µM) [%] | inhibition at 30 µM (C33A; 30 µM) [%] | IC50 (C33A; read-out: calculated IC50 C33A) [nM] | inhibition at 10 µM (MDA-MB-231 [1]; MDA-MB-231, 10 µM, 72 h) [%] | inhibition at 30 µM (MDA-MB-231 [1]; MDA-MB-231, 30 µM, 72 h) [%] | IC50 (MDA-MB-231 [1]; MDA-MB-231, 72 h, read-out: calculated IC50 MDA-MB-231) [nM] | inhibition at 10 µM ([2]; NIH3T3, 10 µM, 72 h) [%] | inhibition at 30 µM ([2]; NIH3T3, 30 µM, 72 h) [%] | IC50 ([2]; NIH3T3, 72 h, read-out: calculated IC50 NIH/3T3) [nM] | inhibition at 10 µM (MCF-7; MCF7, 10 µM, 72 h) [%] | inhibition at 30 µM (MCF-7; MCF7, 30 µM, 72 h) [%] | IC50 (MCF-7; MCF7, 72 h, read-out: calculated IC50 MCF-7) [nM] | inhibition at 10 µM (HeLa; 10 µM) [%] | inhibition at 30 µM (HeLa; 30 µM) [%] | IC50 (HeLa; read-out: calculated IC50 HeLa) [nM] | inhibition at 10 µM (SiHa; 10 µM) [%] | inhibition at 30 µM (SiHa; 30 µM) [%] | IC50 (SiHa; read-out: calculated IC50 SiHa) [nM] | IC50 (MDA-MB-231 [3]) [nM] | IC50 (MCF-7dox) [nM]
CCCCOC1(c2cc(=O)c3c(O)cc(O)cc3o2)C=CC(=O)C=C1 [compound 10, 1′-O-butyl protoapigenone, reference compound] | 98 | 98.5 | 970 | 91.7 | 92.8 | 1060 | 95.5 | 99.1 | 2270 | 87.7 | 93.3 | 3030 | 95.7 | 96.2 | 1430 | 92.2 | 96.3 | 1600 | 620 | 
O=C1C=CC(O)(c2cc(=O)c3cc(-c4ccccc4)ccc3o2)C=C1 [compound 11] |  |  |  |  |  |  |  |  |  |  |  |  |  |  |  |  |  |  |  | 1230
